Source: ChEMBL document CHEMBL4665642, “Anticancer profile of newly synthesized BRAF inhibitors possess 5-(pyrimidin-4-yl)imidazo[2,1-b]thiazole scaffold” (Bioorg Med Chem, 2019)

Legend:
Format in all cases: functional
Settings in all cases: read-out: Activity
MDA-MB-468 = assay: Cytotoxicity against human MDA-MB-468 cells assessed as cell viability at 10 uM incubated for 48 hrs by sulforhodamine B assay relative to control
T47D = assay: Cytotoxicity against human T47D cells assessed as cell viability at 10 uM incubated for 48 hrs by sulforhodamine B assay relative to control
MDA-MB-231 = assay: Cytotoxicity against human MDA-MB-231 cells assessed as cell viability at 10 uM incubated for 48 hrs by sulforhodamine B assay relative to control
MCF7 = assay: Cytotoxicity against human MCF7 cells assessed as cell viability at 10 uM incubated for 48 hrs by sulforhodamine B assay relative to control
DU-145 = assay: Cytotoxicity against human DU-145 cells assessed as cell viability at 10 uM incubated for 48 hrs by sulforhodamine B assay relative to control
UO-31 = assay: Cytotoxicity against human UO-31 cells assessed as cell viability at 10 uM incubated for 48 hrs by sulforhodamine B assay relative to control
SN12C = assay: Cytotoxicity against human SN12C cells assessed as cell viability at 10 uM incubated for 48 hrs by sulforhodamine B assay relative to control
CAKI-1 = assay: Cytotoxicity against human CAKI-1 cells assessed as cell viability at 10 uM incubated for 48 hrs by sulforhodamine B assay relative to control
ACHN = assay: Cytotoxicity against human ACHN cells assessed as cell viability at 10 uM incubated for 48 hrs by sulforhodamine B assay relative to control
SK-OV-3 = assay: Cytotoxicity against human SK-OV-3 cells assessed as cell viability at 10 uM incubated for 48 hrs by sulforhodamine B assay relative to control
IGROV-1 = assay: Cytotoxicity against human IGROV-1 cells assessed as cell viability at 10 uM incubated for 48 hrs by sulforhodamine B assay relative to control
UACC-62 = assay: Cytotoxicity against human UACC-62 cells assessed as cell viability at 10 uM incubated for 48 hrs by sulforhodamine B assay relative to control
UACC-257 = assay: Cytotoxicity against human UACC-257 cells assessed as cell viability at 10 uM incubated for 48 hrs by sulforhodamine B assay relative to control
SK-MEL-5 = assay: Cytotoxicity against human SK-MEL-5 cells assessed as cell viability at 10 uM incubated for 48 hrs by sulforhodamine B assay relative to control
SK-MEL-28 = assay: Cytotoxicity against human SK-MEL-28 cells assessed as cell viability at 10 uM incubated for 48 hrs by sulforhodamine B assay relative to control
SK-MEL-2 = assay: Cytotoxicity against human SK-MEL-2 cells assessed as cell viability at 10 uM incubated for 48 hrs by sulforhodamine B assay relative to control
CCRF-CEM = assay: Cytotoxicity against human CCRF-CEM cells assessed as cell viability at 10 uM incubated for 48 hrs by sulforhodamine B assay relative to control
K562 = assay: Cytotoxicity against human K562 cells assessed as cell viability at 10 uM incubated for 48 hrs by sulforhodamine B assay relative to control
MOLT-4 = assay: Cytotoxicity against human MOLT-4 cells assessed as cell viability at 10 uM incubated for 48 hrs by sulforhodamine B assay relative to control
RPMI-8226 = assay: Cytotoxicity against human RPMI-8226 cells assessed as cell viability at 10 uM incubated for 48 hrs by sulforhodamine B assay relative to control
SR = assay: Cytotoxicity against human SR cells assessed as cell viability at 10 uM incubated for 48 hrs by sulforhodamine B assay relative to control
A549 = assay: Cytotoxicity against human A549 cells assessed as cell viability at 10 uM incubated for 48 hrs by sulforhodamine B assay relative to control
EKVX = assay: Cytotoxicity against human EKVX cells assessed as cell viability at 10 uM incubated for 48 hrs by sulforhodamine B assay relative to control
HOP-62 = assay: Cytotoxicity against human HOP-62 cells assessed as cell viability at 10 uM incubated for 48 hrs by sulforhodamine B assay relative to control
HOP-92 = assay: Cytotoxicity against human HOP-92 cells assessed as cell viability at 10 uM incubated for 48 hrs by sulforhodamine B assay relative to control
NCI-H226 = assay: Cytotoxicity against human NCI-H226 cells assessed as cell viability at 10 uM incubated for 48 hrs by sulforhodamine B assay relative to control
NCI-H23 = assay: Cytotoxicity against human NCI-H23 cells assessed as cell viability at 10 uM incubated for 48 hrs by sulforhodamine B assay relative to control
NCI-H322M = assay: Cytotoxicity against human NCI-H322M cells assessed as cell viability at 10 uM incubated for 48 hrs by sulforhodamine B assay relative to control
NCI-H460 = assay: Cytotoxicity against human NCI-H460 cells assessed as cell viability at 10 uM incubated for 48 hrs by sulforhodamine B assay relative to control
NCI-H522 = assay: Cytotoxicity against human NCI-H522 cells assessed as cell viability at 10 uM incubated for 48 hrs by sulforhodamine B assay relative to control
COLO 205 = assay: Cytotoxicity against human COLO 205 cells assessed as cell viability at 10 uM incubated for 48 hrs by sulforhodamine B assay relative to control
HCC 2998 = assay: Cytotoxicity against human HCC 2998 cells assessed as cell viability at 10 uM incubated for 48 hrs by sulforhodamine B assay relative to control
HCT-116 = assay: Cytotoxicity against human HCT-116 cells assessed as cell viability at 10 uM incubated for 48 hrs by sulforhodamine B assay relative to control
HCT-15 = assay: Cytotoxicity against human HCT-15 cells assessed as cell viability at 10 uM incubated for 48 hrs by sulforhodamine B assay relative to control
HCT-29 = assay: Cytotoxicity against human […] cells assessed as cell viability at 10 uM incubated for 48 hrs by sulforhodamine B assay relative to control
KM12 = assay: Cytotoxicity against human KM12 cells assessed as cell viability at 10 uM incubated for 48 hrs by sulforhodamine B assay relative to control
SW-620 = assay: Cytotoxicity against human SW-620 cells assessed as cell viability at 10 uM incubated for 48 hrs by sulforhodamine B assay relative to control
SF-268 = assay: Cytotoxicity against human SF-268 cells assessed as cell viability at 10 uM incubated for 48 hrs by sulforhodamine B assay relative to control
SNB-19 = assay: Cytotoxicity against human SNB-19 cells assessed as cell viability at 10 uM incubated for 48 hrs by sulforhodamine B assay relative to control
SNB-75 = assay: Cytotoxicity against human SNB-75 cells assessed as cell viability at 10 uM incubated for 48 hrs by sulforhodamine B assay relative to control
LOX IMVI = assay: Cytotoxicity against human LOX IMVI cells assessed as cell viability at 10 uM incubated for 48 hrs by sulforhodamine B assay relative to control

With Cc1ccc(S(=O)(=O)NCCCNc2nccc(-c3c(-c4cccc(F)c4)nc4sccn34)n2)cc1 the viability at 10 µM (MDA-MB-468) was 78.2%, the viability at 10 µM (T47D) was 34.5% and the viability at 10 µM (MDA-MB-231) was 84.5%. The viability at 10 µM (MCF7) was 69.4%, the viability at 10 µM (DU-145) was 77% and the viability at 10 µM (UO-31) was 33.8%. For the same compound, the viability at 10 µM (SN12C) was 70.5%, the viability at 10 µM (CAKI-1) was 46.9% and the viability at 10 µM (ACHN) was 65.5%. The viability at 10 µM (SK-OV-3) was 75.2%, the viability at 10 µM (IGROV-1) was 37.8% and the viability at 10 µM (UACC-62) was 47.8%. It also gave a viability at 10 µM (UACC-257) of 121%, a viability at 10 µM (SK-MEL-5) of 57.3% and a viability at 10 µM (SK-MEL-28) of 106%. For the same compound, the viability at 10 µM (SK-MEL-2) was 86.1%, the viability at 10 µM (CCRF-CEM) was 62.7% and the viability at 10 µM (K562) was 52%. The viability at 10 µM (MOLT-4) was 53.5%, the viability at 10 µM (RPMI-8226) was 68.2% and the viability at 10 µM (SR) was 102%. The viability at 10 µM (A549) was 73%, the viability at 10 µM (EKVX) was 78.1% and the viability at 10 µM (HOP-62) was 101%. For the same compound, the viability at 10 µM (HOP-92) was 112%, the viability at 10 µM (NCI-H226) was 53.7% and the viability at 10 µM (NCI-H23) was 96.2%. It also gave a viability at 10 µM (NCI-H322M) of 89.6%, a viability at 10 µM (NCI-H460) of 65.1% and a viability at 10 µM (NCI-H522) of 70.8%. The viability at 10 µM (COLO 205) was 55.5%, the viability at 10 µM (HCC 2998) was 98.2% and the viability at 10 µM (HCT-116) was 49.6%. It also gave a viability at 10 µM (HCT-15) of 47.1%, a viability at 10 µM (HCT-29) of 37.3% and a viability at 10 µM (KM12) of 67.3%. For the same compound, the viability at 10 µM (SW-620) was 79.4%, the viability at 10 µM (SF-268) was 65.9% and the viability at 10 µM (SNB-19) was 92.2%. It also gave a viability at 10 µM (SNB-75) of 98.7% and a viability at 10 µM (LOX IMVI) of 38%.
